Laboratory results from publication PMC12040169 (PLOS Biology, 2025).

Experiment: in vitro
Conditions: human, hela cells, % viability

Row | SMILES | viability at 28.5 h, 10 µM [%] | viability at 28.5 h, 10 µM (bulk resorufin, single well) [%]
1 | O=C(Cc1ccccc1)N1CCN(S(=O)(=O)N2CCOCC2)CC1 [CBK268857] | 108 | –
2 | O=C(CCCSC1=NC(C(F)(F)F)CC(c2ccco2)N1)Nc1ccc(Cl)c(Cl)c1 (stereo not drawn) [CBK268858] | 88 | –
3 | O=C(O)Cc1ccc(-n2c(S)nnc2-c2ccncc2)cc1 [CBK268860] | 94.9 | –
4 | O=c1[nH]c(CSc2nnc(CCCOc3ccc(Cl)cc3Cl)o2)nc2ccccc12 [CBK268861] | 97.2 | –
5 | Cn1c(NCc2ccco2)nc2c1c(=O)n(Cc1cccc(Br)c1)c(=O)n2C [CBK268863] | 79.8 | –
6 | O=C(NC(=S)Nc1ccc2oc(-c3cncc(Br)c3)nc2c1)c1cc([N+](=O)[O-])ccc1N1CCOCC1 [CBK268864] | 118 | –
7 | Cn1c(=O)oc2cc(S(=O)(=O)N3CCN(C4CCCCC4)CC3)ccc21 [CBK268865] | 107 | –
8 | O=C(O)CCC(=O)Nc1ccc(NC(=O)C2CCCCC2)c(Cl)c1 [CBK268867] | 89.3 | –
9 | CC(C)(C)c1ccc(C(=O)NCCNC(=O)c2nonc2N)cc1 [CBK268869] | 89.5 | –
10 | COc1cccc(CNC23CC4CC(CC(C4)C2)C3)c1OCc1ccccc1 [CBK268873C] | 92 | –
11 | Cn1c(Cc2ccccc2)nnc1SCCC(=O)Nc1ccccc1 [CBK268874] | 91.3 | –
12 | Cc1c(Cl)c([N+](=O)[O-])nn1CCCC(=O)Nc1cc(Br)ccc1O [CBK268875] | 93.1 | –
13 | COc1ccc(-c2nc3ccccc3s2)cc1NC(=O)c1ccc(OCC(C)C)cc1 [CBK268878] | 94.7 | –
14 | COc1ccc(OC)c(NC(=O)CNC(=O)c2ccc(C)cc2)c1 [CBK268881] | 91.5 | –
15 | COc1ccc(Cl)cc1NC(=O)CCCn1cnc([N+](=O)[O-])n1 [CBK268882] | 83.2 | –
16 | Cc1nn2cc(-c3n[nH]cc3[N+](=O)[O-])cnc2c1C(=O)O [CBK268883] | 98.3 | –
17 | COCCCN1C(=O)c2[nH]nc(-c3cc(C)c(C)cc3O)c2C1c1ccc(SC)cc1 (stereo not drawn) [CBK268884] | 89 | –
18 | O=C(Nc1ccc(NC(=O)c2cc3ccccc3o2)cc1)c1ccc(-c2ccccc2)cc1 [CBK268887] | 107 | –
19 | Cc1ccc(N2C(=O)C(CC(=O)Nc3cccc(F)c3)N(CCc3ccncc3)C2=O)cc1 (stereo not drawn) [CBK268891] | 96.5 | –
20 | Cc1cc(/C=C(/C#N)c2ccc(C(=O)O)cc2)c(C)n1-c1ccc(S(N)(=O)=O)cc1 [CBK268896] | 116 | –
21 | CC(=O)c1cccc(NC(=O)CN(c2cc(Cl)ccc2Cl)S(=O)(=O)c2ccc(C)cc2)c1 [CBK268897] | 90.6 | –

Row | SMILES | viability at 28.5 h, 10 µM [%] | viability at 28.5 h, 10 µM (bulk resorufin, single well) [%]
22 | CCOc1ccc(C(=O)NC(=S)Nc2sc(C)c(C)c2C#N)cc1Cl [CBK268900] | 91.8 | –
23 | O=C(Nc1ccc(S(=O)(=O)N2CCCCC2)cc1)c1nc(SCc2ccccc2)ncc1Cl [CBK268901] | 107 | –
24 | COc1ccc(-c2nnc(SCCC(=O)O)n2C)cc1OC [CBK268902] | 98.8 | –
25 | CCOc1ccc(-n2c(SCc3nc(-c4ccccc4C)no3)nnc2-c2ccccc2)cc1 [CBK268910] | 109 | –
26 | CC(=O)c1cccc(NC(=O)CCCn2cc([N+](=O)[O-])cn2)c1 [CBK268911] | 82.8 | –
27 | O=C(CSc1nn2cnnc2s1)Nc1ccc(I)cc1 [CBK268913] | 88.2 | –
28 | CS(=O)(=O)N(CC(=O)Nc1ccc(C(F)(F)F)cc1)Cc1ccc(Cl)cc1 [CBK268915] | 99.7 | –
29 | N#C/C(=C\c1ccc(OCC(=O)O)cc1)C(N)=S [CBK268917] | 102 | –
30 | Cc1cccnc1NC(=O)C(C)n1cc([N+](=O)[O-])cn1 (stereo not drawn) [CBK268918] | 104 | –
31 | Cc1cc(-c2nc3ncccc3o2)ccc1NC(=S)NC(=O)c1cc2ccccc2o1 [CBK268922] | 83.1 | –
32 | O=C(Nc1cc(Oc2ccc(Cl)cc2)cc([N+](=O)[O-])c1)c1cnn2c(C(F)F)cc(C3CC3)nc12 [CBK268925] | 105 | –
33 | Cc1ccc(NC(=O)COc2ccc(/C=C\c3onc(C)c3[N+](=O)[O-])cc2)cc1 [CBK268928] | 88.2 | –
34 | Cc1cc(C)c(NC(=O)CSc2nnc(-c3cccnc3)s2)c([N+](=O)[O-])c1 [CBK268929] | 102 | –
35 | CC1CN(S(=O)(=O)c2ccc(NC(=O)c3nc(SCc4ccccc4)ncc3Cl)cc2)CC(C)O1 (stereo not drawn) [CBK268930] | 89.3 | –
36 | O=S(=O)(N1CCCCC1)N1CCCN(S(=O)(=O)N2CCCCC2)CC1 [CBK268939] | 85.4 | –
37 | Cc1ccc(-c2nc3ccccc3[nH]2)cc1NC(=O)CSc1ccc(Cl)cc1 [CBK268942] | 98.3 | –
38 | COC(=O)c1cc(-c2cccnc2)[nH]n1 [CBK268945] | 104 | –
39 | CC1CCC(N(CCCN)Cc2ccco2)CC1C (stereo not drawn) [CBK268947] | 95.6 | –
40 | Cn1c(SCCCN2C(=O)c3cccc4cccc(c34)C2=O)nnc1-c1ccncc1 [CBK268951] | 93.1 | –
41 | O=C(Nc1ccc(Cc2ccncc2)cc1)c1ccc(-c2cc3ccccc3oc2=O)cc1 [CBK268952] | 121 | –
42 | COc1cc(/C=C(/C#N)c2ccc(C(=O)O)cc2)cc(Br)c1OCC(=O)O [CBK268956] | 92.3 | –

Row | SMILES | viability at 28.5 h, 10 µM [%] | viability at 28.5 h, 10 µM (bulk resorufin, single well) [%]
43 | Cc1nn2cc(-c3n[nH]cc3[N+](=O)[O-])cnc2c1C(N)=O [CBK268957] | 87.4 | –
44 | C=CCn1c(SC(C)C(=O)O)nnc1-c1ccc(OC)cc1 (stereo not drawn) [CBK268958] | 91.1 | –
45 | COC(=O)c1c(NC(=O)Cn2ccc([N+](=O)[O-])n2)sc2c1CCCC2 [CBK268960] | 116 | –
46 | COC(=O)COc1ccc(C2Nc3c(Cl)ccc(C(=O)O)c3C3C=CCC32)cc1 (stereo not drawn) [CBK268961] | 99.9 | –
47 | COc1ccc(Cl)c(Cn2c(NCc3ccccn3)nc3c2c(=O)n(C)c(=O)n3C)c1 [CBK268965] | 97.6 | –
48 | Cc1nn(CC(=O)NCc2ccc(C(=O)O)cc2)c(C)c1[N+](=O)[O-] [CBK268967] | 118 | –
49 | CCSc1ncc(Cl)c(C(=O)N(Cc2cccc(Br)c2)C2CCS(=O)(=O)C2)n1 (stereo not drawn) [CBK268969] | 90.3 | –
50 | Cn1nnnc1SCC(=O)Nc1cccc2nsnc12 [CBK268973] | 101 | –
51 | C=CCNC(=O)CCc1nc(-c2cccc(OC)c2)no1 [CBK268981] | 99.2 | –
52 | CC(=O)Nc1ccc(S(=O)(=O)N2CCN(S(=O)(=O)N3CCCCCC3)CC2)cc1 [CBK268983] | 99.3 | –
53 | Cc1ccc(Nc2nc(N)nc(CN3CCN(Cc4ccc5c(c4)OCO5)CC3)n2)cc1 [CBK268985] | 96.1 | –
54 | CN(C)S(=O)(=O)N1CCN(c2ccc([N+](=O)[O-])c(NC3C4CC5CC(C4)CC3C5)c2)CC1 (stereo not drawn) [CBK268986] | 102 | –
55 | NS(=O)(=O)c1ccc(NC(=O)CSc2cccc3ccccc23)cc1 [CBK268987] | 93.2 | –
56 | O=C(O)c1cc(-n2c(S)nnc2-c2ccncc2)ccc1Cl [CBK268989] | 94.9 | –
57 | COc1ccc(NS(=O)(=O)c2ccc(NC(=S)NC(=O)C(C)(C)C)cc2)cc1 [CBK268990] | 109 | –
58 | CSc1ncc(Cl)c(C(=O)Nc2sc3c(c2C(=O)NCc2ccco2)CCC3)n1 [CBK268991] | 97.2 | –
59 | Cc1ccc(Cl)c(OCc2nnc(SCC(=O)O)n2N)c1 [CBK268992] | 105 | –
60 | CC(CCc1ccccc1)NC(=O)CN1CCOCC1 (stereo not drawn) [CBK268994] | 93 | –
61 | N#C/C(=C/c1ccc(Sc2ccc(Cl)cc2)o1)c1ccc(C(=O)O)cc1 [CBK268996] | 89.8 | –
62 | COc1ccc(OC)c(NC(=O)c2ccc3nccnc3c2)c1 [CBK268997] | 106 | –
63 | O=C(Cn1ccc([N+](=O)[O-])n1)NCc1ccco1 [CBK268999] | 89.6 | –

Row | SMILES | viability at 28.5 h, 10 µM [%] | viability at 28.5 h, 10 µM (bulk resorufin, single well) [%]
64 | Cc1ccc(S(=O)(=O)Nc2ccc(C(=O)Nc3ccc(S(=O)(=O)N4CCCCC4)cc3)cc2)cc1 [CBK269000] | 101 | –
65 | O=S(=O)(N1CCCCCC1)N1CCN(S(=O)(=O)N2CCCCC2)CC1 [CBK269001] | 114 | –
66 | NS(=O)(=O)c1ccc(NC(=O)CSc2ccc([N+](=O)[O-])cn2)cc1 [CBK269002] | 95 | –
67 | CN1CCN(C(=O)c2nc(SCc3ccccc3)ncc2Cl)CC1 [CBK269003] | 86.7 | –
68 | Cc1ccccc1NS(=O)(=O)c1cc(C(=O)Nc2ccc(S(=O)(=O)N3CCCC3)cc2)ccc1C [CBK269004] | 92.9 | –
69 | CCOc1ccc(C(=O)Nc2ccc(-c3nc4ccccc4s3)cc2C)cc1[N+](=O)[O-] [CBK269005] | 90.5 | –
70 | O=C(CSc1nnc(CN2CCOCC2)n1-c1ccc(Cl)cc1)N1CCc2ccccc21 [CBK269008] | 97.9 | –
71 | CC1CN(S(=O)(=O)N2CCOCC2)CCN1S(=O)(=O)N1CCOCC1 (stereo not drawn) [CBK269011] | 101 | –
72 | Cc1c(NC(=O)CN(c2ccccc2)S(=O)(=O)N(C)C)cccc1[N+](=O)[O-] [CBK269012] | 106 | –
73 | COc1ccccc1NC(=O)C1C2NC(=S)NC1(C)Oc1c(OC)cccc12 (stereo not drawn) [CBK269013] | 107 | –
74 | Cc1cc(Br)c(NC(=O)COc2ccc(/C=C(\C#N)C(N)=S)cc2)cc1C [CBK269014] | 97.5 | –
75 | Cc1ccc(OC(C)C(=O)NCc2ccccc2)cc1 (stereo not drawn) [CBK269016] | 101 | –
76 | O=C(CCN1CCOCC1)NNC(=O)Nc1cccc(C(F)(F)F)c1 [CBK269017] | 104 | –
77 | N#Cc1c(NC(=O)CSc2nc3ccccc3s2)oc(-c2ccccc2)c1-c1ccccc1 [CBK269019] | 97 | –
78 | COC(=O)c1cccc(Cn2cc(/C=C\[N+](=O)[O-])c3ccccc32)c1 [CBK269020] | 93.4 | –
79 | O=C1NC(=O)C(CCc2ccccn2)(CCc2ccccn2)C(=O)N1c1cccc(C(F)(F)F)c1 [CBK269021] | – | 99.8
80 | O=C(NC(=S)Nc1cccc2c(O)cccc12)c1ccc(-c2ccccc2)cc1 [CBK269022] | 85.3 | –
81 | O=C(O)CSc1nc(Nc2ccccc2)nc(N2CCOCC2)n1 [CBK269023] | 107 | –
82 | NCCSC1CC(=O)N(Cc2ccc(F)cc2)C1=O (stereo not drawn) [CBK269025C] | 101 | –
83 | COc1ccc(C)cc1Nc1nc(N)nc(-c2oc3ccccc3c2C)n1 [CBK269026] | 107 | –
84 | Cc1ccc2c(C)nc(Nc3nc(CSc4nnc(C)s4)cc(=O)[nH]3)nc2c1 [CBK269027] | 87.1 | –
